From ChEMBL document CHEMBL1201862, “PubChem BioAssay data set” (2004)
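Growth conditions: 96-well plates. Treatment: test compound, 48 hours, 5 concentrations. Analysis: linear interpolation between bracketing concentrations; unreached endpoints set to highest concentration. GI50 = concentration required for 50% inhibition of growth.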 The source made the active and inactive calls. Cut-off read from the data, not from the text of the source: active = GI50 up to about 1.1 µM and inactive = higher.

Assays:
Assay in all cases: growth of human tumour cells (NCI), 48 h
786-0 = system: 786-0
UACC-62 = system: UACC-62
NCI-H23 = system: NCI-H23
OVCAR-3 = system: OVCAR-3
OVCAR-8 = system: OVCAR-8
KM12 = system: KM12
SK-MEL-5 = system: SK-MEL-5
SW-620 = system: SW-620
SF-295 = system: SF-295
SN12C = system: SN12C
NCI-H226 = system: NCI-H226
CAKI-1 = system: CAKI-1
HCT-116 = system: HCT-116
K562 = system: K562
M14 = system: M14
SNB-75 = system: SNB-75
A498 = system: A498
MOLT-4 = system: MOLT-4
SK-MEL-28 = system: SK-MEL-28

Measured: GI50

O=C(Cc1nc2ccccc2o1)C(=O)Nc1ccccc1C(F)(F)F
inactive: 786-0 > 100 µM | UACC-62 > 100 µM | NCI-H23 > 100 µM | OVCAR-3 > 100 µM | OVCAR-8 > 100 µM | KM12 > 100 µM | SK-MEL-5 > 100 µM | SW-620 > 100 µM | SF-295 > 100 µM | SN12C > 100 µM | NCI-H226 > 100 µM | CAKI-1 > 100 µM | HCT-116 > 100 µM | K562 > 100 µM | M14 > 100 µM | SNB-75 63.1 µM | A498 > 100 µM

CC1=CC(/C=C(\C)CCCc2ccoc2)C2(OC(=O)C(C)=C2O)[C@H]2C1CC[C@@H]2C (some centres not stated)
inactive: 786-0 14.6 µM | UACC-62 14.4 µM | NCI-H23 20.5 µM | MOLT-4 19.2 µM | OVCAR-3 21.4 µM | OVCAR-8 28.6 µM | KM12 31.8 µM | SK-MEL-5 20.3 µM | SW-620 33.6 µM | SF-295 20.7 µM | SN12C 20.5 µM | NCI-H226 22.7 µM | CAKI-1 32.1 µM | SK-MEL-28 27.6 µM | HCT-116 15.6 µM | K562 24.7 µM | M14 23.1 µM | SNB-75 33.7 µM | A498 15.5 µM

CC(=O)NC(CCCN(Cc1ccccc1)C(=O)N(C)N=O)C(=O)NCc1ccccc1 (configuration not stated)
inactive: 786-0 > 100 µM | UACC-62 > 100 µM | NCI-H23 > 100 µM | MOLT-4 57.1 µM | OVCAR-3 > 100 µM | OVCAR-8 > 100 µM | KM12 > 100 µM | SK-MEL-5 > 100 µM | SW-620 > 100 µM | SF-295 > 100 µM | SN12C > 100 µM | NCI-H226 > 100 µM | CAKI-1 > 100 µM | SK-MEL-28 > 100 µM | HCT-116 > 100 µM | K562 > 100 µM | M14 > 100 µM | SNB-75 27.4 µM | A498 > 100 µM

COC(=O)C(C#CCCCCC#CC(NC(=O)OCc1ccccc1)(C(=O)OC)C(F)(F)F)(NC(=O)OCc1ccccc1)C(F)(F)F (configuration not stated)
inactive: 786-0 > 100 µM | UACC-62 > 100 µM | NCI-H23 > 100 µM | OVCAR-3 > 100 µM | OVCAR-8 > 100 µM | KM12 > 100 µM | SK-MEL-5 > 100 µM | SW-620 > 100 µM | SF-295 > 100 µM | SN12C > 100 µM | NCI-H226 > 100 µM | CAKI-1 > 100 µM | SK-MEL-28 > 100 µM | HCT-116 97.9 µM | K562 8.38 µM | M14 > 100 µM | SNB-75 > 100 µM | A498 > 100 µM

Cc1cccc(C(C)(C)C)c1NC(=O)CC1Sc2ccccc2NC1=O (configuration not stated)
inactive: 786-0 46 µM | UACC-62 68.7 µM | NCI-H23 46.6 µM | MOLT-4 43.3 µM | OVCAR-3 55.7 µM | OVCAR-8 94.2 µM | KM12 95.1 µM | SK-MEL-5 > 100 µM | SW-620 17.3 µM | SF-295 > 100 µM | SN12C > 100 µM | NCI-H226 94.2 µM | CAKI-1 87.3 µM | SK-MEL-28 > 100 µM | HCT-116 22.4 µM | K562 33 µM | M14 > 100 µM | SNB-75 > 100 µM | A498 > 100 µM
